Values of other authors in patent US11273077B2, “Wound packing material comprising chemoeffector” (priority 2015, dated 2022).

Columns and labels:
Escherichia Coli = conditions: Tar and Tsr receptor mediated

Compound	specificity of chemotaxis toward intermediates of amino acid metabolism (Pseudomonas Aeruginosa)	concentration that induces E. coli chemotaxis (Escherichia Coli)	ligand specificity as chemoattractant (Enterobacteria)
NCCCC(=O)O [GABA, gamma-aminobutyrate]	high specificity	–	–
N[C@@H](CO)C(=O)O [L-serine]	–	nanomolar range	high ligand specificity
